Laboratory results: patent US9332764B2, “Aqueous composition for inactivating sporulated and/or non-sporulated coccidian parasites” (Ecolab USA Inc., priority 2007, dated 2016)
“Also recorded” adds a separate entry of the source.

How the values were obtained:
Eimeria oocysts = settings: cited from earlier work
[1] = test system: sporulated and/or non-sporulated Coccidian parasites; test: Inactivation of Coccidian parasites by chlorine dioxide solutions, general statements; settings: chlorine dioxide alone, concentrations below 120 ppm
From the text: Therefore the disadvantage of the method described in JP 2004-210726 is that high concentrations of chlorine dioxide have to be used in order to sufficiently inactivate the Coccidian parasites. The inventors of the present invention have performed experiments to lower the limit of the concentration of chlorine dioxide in a solution which is still effective, inactivating Coccidian parasites.
In addition the inventors have also investigated whether combinations of chlorine dioxide with other surfactants like for example alkyl sulfonates, amine oxides, ethoxylated polyalcohols, quaternary ammonium compounds, lauryl hydroxy sulfane, and alkyl ether sulfates have an effect in combination with lower concentrations of chlorine dioxide.

[2] = test system: non-sporulated oocysts of Eimeria papillata; test: Incubation of fresh non-sporulated oocysts, then check for sporulation after one week at 25° C.; assay type: cell-based; settings: incubation 60 min; for result (sporulation): room temperature, no surfactant
Method: (§1) For the experiments 20 g female Balb/C-mice were used. […] The flotation medium was prepared containing 124.5 g NaCl and 435.8 g saccharide which was diluted with water and filled up to 1 litre. Fresh non-sporulated oocysts were prepared. Subsequently the Balb/C-mice were infected with 20,000 sporulated oocysts. From the fourth day after infection, fresh mouse excrement is collected and isolated by flotation. Residual flotation medium is removed by washing three times with clean water.
(§2) A chlorine dioxide solution is prepared by mixing a solution containing sodium chlorite and an acidic solution. By reaction chlorine dioxide is produced. The solution comprises 120 ppm chorine dioxide. By further dilution, chlorine dioxide solutions of 40, 20, 10, 4, 1, and 0.5 ppm are produced which are immediately used for the experiments.
Oocysts of Eimeria papillata were filtered from fresh mice excrements and incubated for 60 min with freshly produced chlorine dioxide solution at concentrations of 40, 20, 10, 4, 1, 0.5 ppm at room temperature. After 60 min incubation time the oocyst suspensions were washed with water and cultured for sporulation in 1 ml water. The probes were incubated for one week at 25° C. As control a non-treated, non-sporulated oocyst sample was used which was also incubated for one week at 25° C. After seven days it was checked if a sporulation occurred. (see table 1)
In the same way experiments were carried out with the aqueous composition according to the invention comprising chlorine dioxide and as an anionic surfactant Dofax 2A1 (Dow Chemicals) which is a mixture of a disodium oxybis(dodecyl benzenesulfonate) and a dodecyl(sulfophenoxy)disodium salt of benzene sulfonic acid. The composition comprises between 0.5 to 25 ppm chlorine dioxide and 0.2 wt. % of the anionic surfactant. (see table 2)

[3] = test system: sporulated and/or non-sporulated Coccidian parasites; settings: preferably around 800 ppm; cited from earlier work
[4] = test system: sporulated oocysts of Eimeria papillata; test: Infection of mice with treated sporulated oocysts, excretion of oocysts in excrements; assay type: in vivo, Eimeria papillata in Balb/C-mice; set-up: key to excretion 4 dpi / excretion 5 dpi / excretion 6 dpi / excretion 7 dpi: +++: massive excretion of oocysts; ++: excretion of many oocysts; +: excretion of few oocysts; −: no oocysts detectable; settings: for excretion 4 dpi / excretion 5 dpi / excretion 6 dpi / excretion 7 dpi: 60 min; for excretion 4 dpi: 4 days after infection; for excretion 5 dpi: 5 days after infection; for excretion 6 dpi: 6 days after infection; for excretion 7 dpi: 7 days after infection
Method: as §1
Sporulated infectious oocysts were incubated at 25° C. for one week.
as §2
A further series of experiments was performed in order to evaluate the inactivation pattern of sporulated oocysts. […] After that the oocyst suspensions were washed with water for three times and 20,000 oocysts were orally administered to a mouse. Per concentration one mouse was used. In addition two mice were treated, each with 20,000 non-treated, sporulated oocysts for control purposes. From the fourth day after infection samples of the excrements of the mice were taken daily and the presence of oocysts of Eimeria papillata was examined. (see table 3) […]

[5] = oocysts treated with ClO2 4 ppm
[6] = oocysts treated with ClO2 10 ppm
[7] = oocysts treated with ClO2 20 ppm
[8] = oocysts treated with ClO2 40 ppm
[9] = oocysts treated with ClO2 120 ppm
[10] = oocysts treated with ClO2 240 ppm

C=O [formalin]
effectiveness for eradication of coccoid oocysts (Eimeria oocysts): ineffective

benzalkonium chloride
effectiveness for eradication of coccoid oocysts (Eimeria oocysts): ineffective

O=S(=O)([O-])[O-].[Cu+2] [copper sulfate]
effectiveness for eradication of coccoid oocysts (Eimeria oocysts): ineffective

[I-].[K+] [potassium iodide]
effectiveness for eradication of coccoid oocysts (Eimeria oocysts): ineffective

OCl [sodium hypochlorite]
effectiveness for eradication of coccoid oocysts (Eimeria oocysts): ineffective

[O][Cl+][O-] [chlorine dioxide solution, chlorine dioxide]
inactivation / eradication of coccoid organisms [1]: ineffective; also recorded: will not inactivate | result (sporulation) ([2]; ClO2 0.5 ppm): complete | result (sporulation) ([2]; ClO2 1 ppm): complete | result (sporulation) ([2]; ClO2 4 ppm): complete | result (sporulation) ([2]; ClO2 10 ppm): complete | result (sporulation) ([2]; ClO2 20 ppm): complete | result (sporulation) ([2]; ClO2 40 ppm): partial | sporulation ([2]; chlorine dioxide only, concentrations below 40 ppm): complete or partial sporulation | chlorine dioxide concentration known to completely inactivate sporulated and/or non-sporulated Coccidian parasites [3]: above 200 ppm | excretion of oocysts of Eimeria papillata in Balb/C-mice ([4]; chlorine dioxide between 4 and 40 ppm, incubation 60 min): cannot be avoided | detectable oocysts ([4]; concentrations of 120 ppm and 240 ppm): no detectable oocysts | excretion 4 dpi [4, 5]: ++ | excretion 5 dpi [4, 5]: ++ | excretion 6 dpi [4, 5]: ++ | excretion 7 dpi [4, 5]: + | excretion 4 dpi [4, 6]: ++ | excretion 5 dpi [4, 6]: ++ | excretion 6 dpi [4, 6]: ++ | excretion 7 dpi [4, 6]: + | excretion 4 dpi [4, 7]: ++ | excretion 5 dpi [4, 7]: ++ | excretion 6 dpi [4, 7]: + | excretion 7 dpi [4, 7]: + | excretion 4 dpi [4, 8]: + | excretion 5 dpi [4, 8]: + | excretion 6 dpi [4, 8]: + | excretion 7 dpi [4, 8]: + | excretion 4 dpi [4, 9]: − | excretion 5 dpi [4, 9]: − | excretion 6 dpi [4, 9]: − | excretion 7 dpi [4, 9]: − | excretion 4 dpi [4, 10]: − | excretion 5 dpi [4, 10]: − | excretion 6 dpi [4, 10]: − | excretion 7 dpi [4, 10]: −

[K+].[K+].[O]=[Cr](=[O])([O-])[O][Cr](=[O])(=[O])[O-] [potassium dichromate]
effectiveness for eradication of coccoid oocysts (Eimeria oocysts): ineffective

CC(=O)OO [peracetic acid]
effectiveness for eradication of coccoid oocysts (Eimeria oocysts): ineffective

O=CCCCC=O [glutaraldehyde]
effectiveness for eradication of coccoid oocysts (Eimeria oocysts): ineffective

[K+].[OH-] [potassium hydroxide]
effectiveness for eradication of coccoid oocysts (Eimeria oocysts): ineffective

cresylic acid
effectiveness for eradication of coccoid oocysts (Eimeria oocysts): ineffective

O=S(=O)(O)O [sulfuric acid]
effectiveness for eradication of coccoid oocysts (Eimeria oocysts): ineffective
